Consider 54 compounds from patent publication US20070021509A1, “Phosphate transport inhibitors” (priority 2001, published 2007).

Some results are limits rather than exact numbers.

For the first experiment, the system named is phosphate uptake by rabbit intestinal Brush Border Membrane Vesicles (BBMV). The experiment in a line: 33PO4 uptake in rabbit intestinal BBMV (HTS), phosphate transporter inhibition in vitro. It is filed as biochemical. Particulars: Table 1, phosphate uptake, read-out: IC50. As for the experimental part: The following example outlines the procedures required for in vitro measurement of the inhibition of phosphate uptake by rabbit intestinal Brush Border Membrane Vesicles (BBMV).
Rabbit Intestinal Brush Border Membrane Vesicles (BBMV) were isolated from mucosal scrapings of the upper small intestine (duodenum) of male New Zealand White rabbits. The scrapings were divided into 2 g aliquots in cryopreservation vials, frozen in liquid nitrogen, and stored at −80° C.
The following procedure was performed for each 2 g sample of BBMV mucosal scraping. Buffer volumes and container sizes were adjusted appropriately for the number of 2 g samples used. The entire preparation was performed on ice, unless otherwise stated.
Mucosal scrapings (2 g per tube) were thawed in a 37° C. water bath for 3 minutes and then placed on ice. The scrapings were suspended with a total of 7.5 ml of 300 MET, and transferred to a 250 mL Corning tube on ice. To the suspension was added 30 mL cold (4° C.) deionized water (dH20). The suspension was homogenized with a tissue homogenizer (Polytron) on high speed for 2 minutes. A stir bar and MgCl2 (81.3 mg) was added. The suspension was mixed well by inverting the closed tube. The suspension was stirred on ice, ensuring that a good vortex is achieved with the stir bar, for 40 minutes. The suspension was transferred to a chilled centrifuge tube and spun at 4000×g for 15 minutes. The supernatant was transferred to a new chilled centrifuge tube and spun at 32000×g for 30 minutes. The supernatant was discarded and the pellet was re-suspended with 34 mL cold 60 MET. The suspension was homogenized with a Dounce homogenizer with 8 strokes. The suspension was transferred to a fresh 250 mL Corning tube. A stir bar and 69.1 mg MgCl2 were added. The suspension was stirred well on ice for 10 minutes. The suspension was transferred to a chilled centrifuge tube and spun at 4000×g for 15 minutes. The supernatant was transferred to a new chilled centrifuge tube and spun at 32000×g for 30 minutes. The supernatant was discarded. At this stage, the preparation could be continued or this pellet (P4) could be frozen in liquid nitrogen and stored at −80° C. When needed, this pellet could be allowed to thaw at room temperature for 5 minutes. Continuing the preparation, the pellet was re-suspended with 34 mL cold 280 MH. The suspension was homogenized in a Dounce homogenize with 8 strokes. The suspension was transferred to a new chilled centrifuge tube and spun at 32000×g for 30 minutes. The supernatant was discarded. To the pellet was added 500 μL 280 MH and the pellet was re-suspended very carefully with a 1 mL tuberculin syringe with a 25-gauge needle with care not to create bubbles. Once the entire pellet was suspended, the suspension was transferred to a chilled 1.5 mL microfuge tube. The suspension was evenly dispersed by bringing the suspension up into the syringe through the 25-gauge needle, and back out again 8 times with care not to create bubbles. The total protein concentration was determined by performing a Bradford Protein Assay. Using that value, the BBMV were diluted with 280 MH to reach approximately 0.5-2.0 mg/mL. The solution was used as soon as possible for uptake studies.
The following experiment was performed using a Beckman Multimek 96-tip robotic pipettor. The following outlines the preparation required to screen one 96-well plate of compounds. However, multiple plates could be screened in one experiment.
To the “Uptake Buffers” was added ^33PO4 to reach 200,000 CPM/19 μL. The buffer solutions were stored at room temperature. The following control solutions were prepared and placed into appropriate wells of a polypropylene, 96-well V-bottom plate (“Hot Stock Plate”):
a. Maximum activity (MAX)−Na Uptake buffer+^33PO4 at 200,000 CPM/19 μL
b. Midline activity (MID)−MAX+100 μM KH2PO4, pH 7.4
c. Minimum activity (MIN)− K Uptake buffer+^33PO4 at 200,000 CPM/19 μL
`O=C(O)c1cc(Br)ccc1NS(=O)(=O)c1ccc(Oc2ccccc2)cc1` [Compound 11]: the half-inhibitory concentration (IC50) was in the range of 101 to 500 µM.

Take `Cc1ccc(S(=O)(=O)Nc2ccc(Br)cc2C(=O)O)cc1[N+](=O)[O-]` [Compound 9]: the IC50 lay within 51 to 100 µM.

Take `O=C(O)c1cc(Br)ccc1NS(=O)(=O)c1ccc(Cl)cc1` [Compound 39]: the IC50 is over 1500 µM.

In the case of `O=C(O)c1cc(Br)ccc1NS(=O)(=O)c1cc(C(F)(F)F)cc(C(F)(F)F)c1` [Compound 3], the IC50 fell in the range of 51 to 100 µM.

Regarding `O=C(O)c1cc(Br)ccc1NS(=O)(=O)c1ccc(OC(F)(F)F)cc1` [Compound 14], the IC50 fell in the range of 101 to 500 µM.

The experiment is the same for the next values; noted with them: Table 2, phosphate uptake, read-out: IC50.
As for `O=C(c1ccc(Cl)cc1)c1cc(NC(=O)c2cc(Br)ccc2NS(=O)(=O)c2ccc(Cl)cc2)ccc1Cl` [Compound 96], the IC50 is over 1500 µM.

Regarding `O=C(Nc1ccccc1Br)c1cc(Br)ccc1NS(=O)(=O)c1ccc(Cl)c([N+](=O)[O-])c1` [Compound 114], the half-maximal inhibitory concentration (IC50) fell in the range of 51 to 100 µM.

As to `O=C(NCc1ccc(F)cc1F)c1cc(Br)ccc1NS(=O)(=O)c1ccc(OC(F)(F)F)cc1` [Compound 64], the IC50 is 51 to 100 µM.

As for `Cc1c(Cl)cccc1NC(=O)c1cc(Br)ccc1NS(=O)(=O)c1ccc(OC(F)(F)F)cc1` [Compound 83], the IC50 was in the range of 501 to 1000 µM.

On to `COc1cccc(CNC(=O)c2cc(Br)ccc2NS(=O)(=O)c2ccc(OC(F)(F)F)cc2)c1` [Compound 54], for which the IC50 was under 50 µM.

For the compound `O=C(Nc1ccccc1Br)c1cc(Br)ccc1NS(=O)(=O)c1ccc(OC(F)(F)F)cc1` [Compound 62], the IC50 was 51 to 100 µM.

`O=C(NCc1cc(F)ccc1F)c1cc(Br)ccc1NS(=O)(=O)c1ccc(OC(F)(F)F)cc1` [Compound 66]: the IC50 is 51 to 100 µM.

For `CCCCCCCCCCc1ccc(NC(=O)c2cc(Br)ccc2NS(=O)(=O)c2ccc(OC(F)(F)F)cc2)cc1` [Compound 81], the IC50 was in the range of 501 to 1000 µM.

As for `O=C(Nc1cccc(Br)c1)c1cc(Br)ccc1NS(=O)(=O)c1ccc(OC(F)(F)F)cc1` [Compound 72], the IC50 lay within 101 to 500 µM.

On to `O=C(Nc1cccc(Cl)c1)c1cc(Br)ccc1NS(=O)(=O)c1ccc(Cl)cc1` [Compound 95], for which the IC50 is over 1500 µM.

With `O=C(NCc1ccc(Cl)c(Cl)c1)c1cc(Br)ccc1NS(=O)(=O)c1ccc(OC(F)(F)F)cc1` [Compound 63], the IC50 was 51 to 100 µM.

Regarding `O=C(Nc1cccc(Br)c1)c1cc(Br)ccc1NS(=O)(=O)c1ccc(Cl)cc1` [Compound 91], the IC50 is over 1500 µM.

As for `Cc1c(Cl)cccc1NC(=O)c1cc(Br)ccc1NS(=O)(=O)c1ccc(Cl)c([N+](=O)[O-])c1` [Compound 122], the IC50 is over 1500 µM.

Regarding `O=C(Nc1ccc(Cl)c(Cl)c1)c1cc(Br)ccc1NS(=O)(=O)c1ccc(Cl)c([N+](=O)[O-])c1` [Compound 110], the IC50 is under 50 µM.

As for `NCCCCCCNC(=O)c1cc(Br)ccc1NS(=O)(=O)c1ccc(Cl)c([N+](=O)[O-])c1` [Compound 119], the IC50 was 1000 to 1500 µM.

Consider `O=C(NCc1ccc(OC(F)(F)F)cc1)c1cc(Br)ccc1NS(=O)(=O)c1ccc(OC(F)(F)F)cc1` [Compound 60], for which the concentration for half-maximal inhibition (IC50) fell in the range of 51 to 100 µM.

Still in this experiment, the particulars now being: Table 3, 100 μM compound.
In the case of `O=S(=O)(c1ccccc1)n1nnc2ccccc21` [Compound 143], the “% Inhib. At 100 μM” value amounted to 64%.

Take `O=S(=O)(Nc1ccc(I)cc1F)c1ccc(OC(F)(F)F)cc1` [Compound 126]: the “% Inhib. At 100 μM” value is 103%.

Take `O=S(=O)(Nc1ccccc1-n1cccc1)c1ccc(OC(F)(F)F)cc1` [Compound 134]: the “% Inhib. At 100 μM” value is listed as 76%.

Regarding `CSc1ccc(N(c2ccc(OC(F)(F)F)cc2)S(=O)(=O)c2ccc(OC(F)(F)F)cc2)cc1` [Compound 167], the “% Inhib. At 100 μM” value is reported as 21%.

Turning to `O=c1sc2ccccc2n1S(=O)(=O)c1ccccc1` [Compound 148], the “% Inhib. At 100 μM” value stood at 60%.

Consider `O=S(=O)(c1ccc(Cl)cc1)N1CCCc2ccccc21` [Compound 139], for which the “% Inhib. At 100 μM” value turned out to be 70%.

Regarding `O=S(=O)(c1ccc(Cl)cc1)N1CCc2ccccc21` [Compound 140], the “% Inhib. At 100 μM” value came out at 69%.

Take `O=S(=O)(Nc1ccccc1Br)c1ccc(OC(F)(F)F)cc1` [Compound 149]: the “% Inhib. At 100 μM” value is on record as 57%.

The same experiment, now with this note: Table 4, phosphate uptake, read-out: IC50.
In the case of `O=C(Nc1cc(Cl)cc(Cl)c1)Nc1ccc(Br)cc1P(=O)(O)O` [Compound 180], the IC50 was 51 to 100 µM.

For `O=C(Nc1ccc(Br)cc1P(=O)(O)O)Nc1cccc(C(F)(F)F)c1Cl` [Compound 198], the IC50 fell in the range of 501 to 1000 µM.

With `CCOc1ccc(NC(=O)Nc2ccc(Br)cc2P(=O)(O)O)cc1` [Compound 212], the IC50 was over 1500 µM.

For the compound `CCOC(=O)c1cccc(NC(=O)Nc2ccc(Br)cc2P(=O)(O)O)c1` [Compound 208], the IC50 is 1000 to 1500 µM.

In the case of `O=C(Nc1ccc(F)c([N+](=O)[O-])c1)Nc1ccc(Br)cc1P(=O)(O)O` [Compound 194], the IC50 lay within 101 to 500 µM.

Consider `O=C(Nc1cc(F)cc(C(F)(F)F)c1)Nc1ccc(Br)cc1P(=O)(O)O` [Compound 184], for which the IC50 was 101 to 500 µM.

The experiment is the same for the next values; noted with them: Table 5, 100 μM compound.
Take `O=C(Nc1cccc(C(F)(F)F)c1)Nc1ccc(Cl)cc1Cl` [Compound 224]: the “% Inhib. at 100 μM” value was determined as 85%.

With `O=C(Nc1cccc(C(F)(F)F)c1)Nc1cccc(Cl)c1Cl` [Compound 215], the “% Inhib. at 100 μM” value came out at 96%.

In the case of `O=C(Nc1cccc(C(F)(F)F)c1)Nc1ccc(Br)cc1P(=O)(O)O` [Compound 230], the “% Inhib. at 100 μM” value worked out at 49%.

The same experiment, now with this note: Table 6, 100 μM compound.
With `c1ccc(Oc2ccc(C3=NOC(c4ccco4)C3)cc2)cc1` (stereo not drawn) [Compound 233], the “% Inhib. at 100 μM” value was 68%.

As to `Cn1nc(-c2cc(Cl)cc(Cl)c2O)cc1-c1ccc(Br)cc1` [Compound 238], the “% Inhib. at 100 μM” value stood at 16%.

`Fc1ccc(C2CC(c3ccc(Oc4ccccc4)cc3)=NO2)cc1` (stereo not drawn) [Compound 235]: the “% Inhib. at 100 μM” value was found to be 54%.

Take `Oc1ccc(-c2cc(-c3ccco3)on2)cc1` [Compound 236]: the “% Inhib. at 100 μM” value turned out to be 41%.

Still in this experiment, the particulars now being: Table 8, 100 μM compound.
Take `CCCCCCCc1ccc(C(=O)Nc2ccc(Br)cc2P(=O)(OCC)OCC)cc1` [Compound 247]: the “% Inhib. at 100 μM” value was 53%.

Still in this experiment, the particulars now being: Table 10, phosphate uptake, read-out: IC50.
As for `CCOP(=O)(OCC)c1cc(Br)ccc1NC(=O)c1cc(F)c(Cl)cc1Cl` [Compound 262], the IC50 is 101 to 500 µM.

On to `CCOP(=O)(OCC)c1cc(Br)ccc1NC(=O)c1ccc(OC(F)(F)F)cc1` [Compound 259], for which the IC50 fell in the range of 101 to 500 µM.

`O=C(Nc1ccc(Br)cc1)c1cc(Br)cc(Br)c1O` [Compound 253]: the IC50 was 101 to 500 µM.

On to `O=C(Nc1ccc(Br)cc1I)c1ccc(OC(F)(F)F)cc1` [Compound 271], for which the IC50 is over 1500 µM.

With `COc1ccc(NC(=O)c2cc3ccc4c5ccccc5[nH]c4c3cc2O)cc1` [Compound 257], the IC50 was 101 to 500 µM.

Staying with this experiment, now noted: Table 11, phosphate uptake, read-out: IC50.
In the case of `O=C(/C=C/c1cccc(F)c1)c1cccc(Oc2ccccc2)c1` [Compound 279], the half-maximal inhibitory concentration (IC50) was over 1500 µM.

On to `O=C(/C=C/c1ccco1)c1cccc(Oc2ccccc2)c1` [Compound 276], for which the IC50 lay within 501 to 1000 µM.

The same experiment, now with this note: Table 12, 100 μM compound.
As for `O=[N+]([O-])c1ccc(CS(=O)(=O)c2ccc(F)cc2F)c(Cl)c1` [Compound 285], the “% Inhib. at 100 μM” value came out at 44%.

Turning to `Cc1ccc(S(=O)(=O)Cc2c(Cl)cccc2Cl)cc1` [Compound 281], the “% Inhib. at 100 μM” value worked out at 53%.

The same experiment, now with this note: Table 13, phosphate uptake, read-out: IC50.
In the case of `O=[N+]([O-])c1cccc(S(=O)(=O)Nc2ccc(/C=C/c3ccc(NS(=O)(=O)c4cccc([N+](=O)[O-])c4)cc3S(=O)(=O)O)c(S(=O)(=O)O)c2)c1` [Compound 297], the IC50 was in the range of 101 to 500 µM.

Consider `O=S(=O)(O)c1cc(NS(=O)(=O)c2cccc(C(F)(F)F)c2)ccc1/C=C/c1ccc(NS(=O)(=O)c2cccc(C(F)(F)F)c2)cc1S(=O)(=O)O` [Compound 296], for which the IC50 was 101 to 500 µM.
